Measurements published in article PMC6407917, “Identification of GSK3186899/DDD853651 as a Preclinical Development Candidate for the Treatment of Visceral Leishmaniasis” (Journal of Medicinal Chemistry, 2018).

Assays:
Experiment in all cases: biochemical
Set-up in all cases: species or system HEK293/K-562/placenta mixed human extract; Kinobeads chemoproteomic competition binding, quantified by TMT LC-MS/MS, dose response up to 20 uM
AURKA = AURKA (Homo sapiens, UniProt O14965)
AXL = AXL (Homo sapiens, UniProt P30530)
CDC42BPB = CDC42BPB (Homo sapiens, UniProt Q9Y5S2)
FLT4 = FLT4 (Homo sapiens, UniProt P35916)
FRK = FRK (Homo sapiens, UniProt P42685)
FYN = FYN (Homo sapiens, UniProt P06241)
IKBKG = IKBKG (Homo sapiens, UniProt Q9Y6K9)
KDR = KDR (Homo sapiens, UniProt P35968)
LRRK2 = LRRK2 (Homo sapiens, UniProt Q5S007)
MAP4K1 = MAP4K1 (Homo sapiens, UniProt Q92918)
MAST3 = MAST3 (Homo sapiens, UniProt O60307)
MYLK = MYLK (Homo sapiens, UniProt Q15746)
NTRK1 = NTRK1 (Homo sapiens, UniProt P04629)
PDIK1L = PDIK1L (Homo sapiens, UniProt Q8N165)
PKN3 = PKN3 (Homo sapiens, UniProt Q6P5Z2)
PRKAA2 = PRKAA2 (Homo sapiens, UniProt P54646)
PRKCQ = PRKCQ (Homo sapiens, UniProt Q04759)
RB1CC1 = RB1CC1 (Homo sapiens, UniProt Q8TDY2)
RPS6KA3 = RPS6KA3 (Homo sapiens, UniProt P51812)
STK38 = STK38 (Homo sapiens, UniProt Q15208)
ULK3 = ULK3 (Homo sapiens, UniProt Q6PHR2)

Measured: IC50

Chain of NTRK1 (P04629 whole entry): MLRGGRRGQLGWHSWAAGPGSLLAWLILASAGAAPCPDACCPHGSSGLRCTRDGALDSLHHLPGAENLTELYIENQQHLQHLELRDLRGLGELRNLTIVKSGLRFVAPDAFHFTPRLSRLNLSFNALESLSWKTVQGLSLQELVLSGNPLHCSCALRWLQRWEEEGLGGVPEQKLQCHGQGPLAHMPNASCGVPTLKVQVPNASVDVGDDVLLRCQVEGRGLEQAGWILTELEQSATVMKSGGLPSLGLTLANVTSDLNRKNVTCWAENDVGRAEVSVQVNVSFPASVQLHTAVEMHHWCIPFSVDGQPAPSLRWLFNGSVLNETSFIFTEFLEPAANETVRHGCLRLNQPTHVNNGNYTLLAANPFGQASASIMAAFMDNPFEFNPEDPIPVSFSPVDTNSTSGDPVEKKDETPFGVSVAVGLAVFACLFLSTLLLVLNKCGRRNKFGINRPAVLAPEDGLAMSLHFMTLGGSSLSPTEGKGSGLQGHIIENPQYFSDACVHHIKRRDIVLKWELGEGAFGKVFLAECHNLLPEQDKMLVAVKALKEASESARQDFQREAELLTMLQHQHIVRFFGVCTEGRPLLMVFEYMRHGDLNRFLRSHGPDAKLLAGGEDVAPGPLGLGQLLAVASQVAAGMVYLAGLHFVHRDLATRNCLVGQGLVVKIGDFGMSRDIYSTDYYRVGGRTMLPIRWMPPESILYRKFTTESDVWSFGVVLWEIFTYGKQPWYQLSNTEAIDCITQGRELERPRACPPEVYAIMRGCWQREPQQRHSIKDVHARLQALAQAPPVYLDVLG
Chain of RB1CC1 (Q8TDY2 whole entry): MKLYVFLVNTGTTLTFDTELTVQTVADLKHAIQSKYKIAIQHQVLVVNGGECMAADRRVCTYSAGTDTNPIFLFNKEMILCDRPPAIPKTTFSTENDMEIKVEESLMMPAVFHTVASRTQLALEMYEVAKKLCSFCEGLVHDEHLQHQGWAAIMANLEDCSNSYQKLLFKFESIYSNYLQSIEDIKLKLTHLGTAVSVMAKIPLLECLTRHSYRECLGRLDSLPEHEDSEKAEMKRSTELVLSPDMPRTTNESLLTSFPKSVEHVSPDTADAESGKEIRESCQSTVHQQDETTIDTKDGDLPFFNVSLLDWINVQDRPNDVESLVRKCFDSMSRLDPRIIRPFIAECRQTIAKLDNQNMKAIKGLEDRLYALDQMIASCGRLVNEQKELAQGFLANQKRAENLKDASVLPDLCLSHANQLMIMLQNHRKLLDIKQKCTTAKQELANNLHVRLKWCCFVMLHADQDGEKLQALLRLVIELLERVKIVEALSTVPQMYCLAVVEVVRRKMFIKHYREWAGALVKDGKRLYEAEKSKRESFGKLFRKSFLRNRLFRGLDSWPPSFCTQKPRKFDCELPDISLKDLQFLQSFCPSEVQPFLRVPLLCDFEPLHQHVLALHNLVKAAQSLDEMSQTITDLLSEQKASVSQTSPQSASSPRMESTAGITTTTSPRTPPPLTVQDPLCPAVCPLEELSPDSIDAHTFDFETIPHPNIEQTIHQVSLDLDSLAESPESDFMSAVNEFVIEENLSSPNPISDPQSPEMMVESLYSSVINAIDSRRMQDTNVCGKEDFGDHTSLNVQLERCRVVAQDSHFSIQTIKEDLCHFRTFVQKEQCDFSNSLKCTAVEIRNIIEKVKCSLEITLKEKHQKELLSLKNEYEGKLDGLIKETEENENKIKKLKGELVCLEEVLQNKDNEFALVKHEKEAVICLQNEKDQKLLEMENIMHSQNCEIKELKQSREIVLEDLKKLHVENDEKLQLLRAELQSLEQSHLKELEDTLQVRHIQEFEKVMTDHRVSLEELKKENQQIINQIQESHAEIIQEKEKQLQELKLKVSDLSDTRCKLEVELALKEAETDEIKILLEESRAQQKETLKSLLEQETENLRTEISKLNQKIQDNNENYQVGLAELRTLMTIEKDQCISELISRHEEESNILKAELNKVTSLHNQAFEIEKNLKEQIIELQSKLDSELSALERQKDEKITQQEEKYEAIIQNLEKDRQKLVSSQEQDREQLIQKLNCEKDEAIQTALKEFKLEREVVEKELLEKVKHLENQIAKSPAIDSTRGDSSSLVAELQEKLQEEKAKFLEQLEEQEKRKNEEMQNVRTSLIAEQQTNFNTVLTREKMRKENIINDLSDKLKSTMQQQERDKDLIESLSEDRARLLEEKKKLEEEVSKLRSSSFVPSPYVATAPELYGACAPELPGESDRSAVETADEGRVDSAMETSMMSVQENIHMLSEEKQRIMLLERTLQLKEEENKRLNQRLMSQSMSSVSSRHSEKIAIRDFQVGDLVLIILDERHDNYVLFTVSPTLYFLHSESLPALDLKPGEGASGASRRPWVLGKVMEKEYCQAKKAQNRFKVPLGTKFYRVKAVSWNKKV
Chain of AXL (P30530 whole entry): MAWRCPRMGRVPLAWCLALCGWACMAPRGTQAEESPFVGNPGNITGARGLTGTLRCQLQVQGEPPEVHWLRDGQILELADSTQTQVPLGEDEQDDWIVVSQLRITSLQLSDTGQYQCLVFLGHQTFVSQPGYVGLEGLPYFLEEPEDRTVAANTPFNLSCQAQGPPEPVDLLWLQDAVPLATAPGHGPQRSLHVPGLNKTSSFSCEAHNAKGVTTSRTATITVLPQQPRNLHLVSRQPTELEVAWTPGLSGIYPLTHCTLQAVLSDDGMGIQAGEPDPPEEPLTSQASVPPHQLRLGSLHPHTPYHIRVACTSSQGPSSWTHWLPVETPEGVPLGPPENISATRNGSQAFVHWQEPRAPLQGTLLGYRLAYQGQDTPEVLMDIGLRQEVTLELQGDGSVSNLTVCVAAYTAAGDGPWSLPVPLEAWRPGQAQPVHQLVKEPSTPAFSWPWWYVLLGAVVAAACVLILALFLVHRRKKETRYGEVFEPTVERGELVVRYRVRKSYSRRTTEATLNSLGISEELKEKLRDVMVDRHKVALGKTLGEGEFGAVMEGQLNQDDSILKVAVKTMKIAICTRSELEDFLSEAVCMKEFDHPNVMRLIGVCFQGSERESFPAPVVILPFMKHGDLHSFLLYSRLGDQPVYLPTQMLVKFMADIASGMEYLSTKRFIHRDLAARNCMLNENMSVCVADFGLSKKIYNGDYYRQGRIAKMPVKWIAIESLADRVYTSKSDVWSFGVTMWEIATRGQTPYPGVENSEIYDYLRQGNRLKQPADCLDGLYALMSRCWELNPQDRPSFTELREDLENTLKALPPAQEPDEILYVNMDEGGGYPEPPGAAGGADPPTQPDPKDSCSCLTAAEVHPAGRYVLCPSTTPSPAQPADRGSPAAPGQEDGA
Chain of PRKCQ (Q04759 whole entry): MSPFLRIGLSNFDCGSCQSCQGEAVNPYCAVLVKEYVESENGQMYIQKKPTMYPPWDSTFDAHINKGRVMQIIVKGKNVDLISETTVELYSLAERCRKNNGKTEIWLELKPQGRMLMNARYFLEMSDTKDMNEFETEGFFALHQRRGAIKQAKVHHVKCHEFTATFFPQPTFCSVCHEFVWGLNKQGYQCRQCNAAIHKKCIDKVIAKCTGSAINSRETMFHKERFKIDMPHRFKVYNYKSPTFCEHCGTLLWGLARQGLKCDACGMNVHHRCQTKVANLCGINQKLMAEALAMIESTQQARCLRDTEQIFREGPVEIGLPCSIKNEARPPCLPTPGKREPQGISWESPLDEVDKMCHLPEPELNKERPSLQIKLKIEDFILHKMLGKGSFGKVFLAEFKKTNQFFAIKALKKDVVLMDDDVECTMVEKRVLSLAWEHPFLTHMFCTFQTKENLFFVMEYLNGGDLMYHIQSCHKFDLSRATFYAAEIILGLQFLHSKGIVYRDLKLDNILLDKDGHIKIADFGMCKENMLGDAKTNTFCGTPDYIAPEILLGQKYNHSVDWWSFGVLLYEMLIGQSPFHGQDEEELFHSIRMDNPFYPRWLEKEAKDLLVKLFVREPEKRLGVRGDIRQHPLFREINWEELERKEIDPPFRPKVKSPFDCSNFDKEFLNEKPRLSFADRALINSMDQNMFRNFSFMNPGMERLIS
Chain of PDIK1L (Q8N165 whole entry): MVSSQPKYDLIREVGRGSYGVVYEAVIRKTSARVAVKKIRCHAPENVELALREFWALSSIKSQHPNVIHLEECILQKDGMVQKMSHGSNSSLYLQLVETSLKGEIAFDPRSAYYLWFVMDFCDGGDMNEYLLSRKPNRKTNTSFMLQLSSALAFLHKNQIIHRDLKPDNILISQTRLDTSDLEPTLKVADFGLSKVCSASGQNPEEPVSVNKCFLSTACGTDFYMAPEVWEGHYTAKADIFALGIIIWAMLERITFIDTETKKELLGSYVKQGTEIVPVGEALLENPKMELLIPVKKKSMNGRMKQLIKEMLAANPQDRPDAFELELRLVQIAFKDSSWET
Chain of RPS6KA3 (P51812 whole entry): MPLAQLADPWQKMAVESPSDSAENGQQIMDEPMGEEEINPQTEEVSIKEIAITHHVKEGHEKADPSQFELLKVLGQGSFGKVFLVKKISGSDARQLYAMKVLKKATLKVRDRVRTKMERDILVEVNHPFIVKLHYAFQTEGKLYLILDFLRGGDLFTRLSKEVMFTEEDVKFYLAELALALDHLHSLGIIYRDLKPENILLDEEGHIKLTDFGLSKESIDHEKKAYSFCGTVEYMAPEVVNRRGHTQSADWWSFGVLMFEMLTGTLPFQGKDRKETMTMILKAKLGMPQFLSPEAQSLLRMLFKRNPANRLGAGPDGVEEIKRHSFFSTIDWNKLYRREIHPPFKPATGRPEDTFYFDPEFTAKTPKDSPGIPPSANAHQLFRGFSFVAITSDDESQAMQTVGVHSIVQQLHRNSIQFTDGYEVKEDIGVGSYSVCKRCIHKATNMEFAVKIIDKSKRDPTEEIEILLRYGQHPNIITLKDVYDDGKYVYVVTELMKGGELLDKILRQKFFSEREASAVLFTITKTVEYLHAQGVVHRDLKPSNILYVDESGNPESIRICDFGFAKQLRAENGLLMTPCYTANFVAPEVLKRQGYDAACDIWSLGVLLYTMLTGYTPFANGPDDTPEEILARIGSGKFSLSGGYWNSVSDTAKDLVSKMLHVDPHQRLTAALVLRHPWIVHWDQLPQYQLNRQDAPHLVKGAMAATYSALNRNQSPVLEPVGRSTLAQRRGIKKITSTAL

COc1nc(N[C@H]2CC[C@H](NS(=O)(=O)CC(C)C)CC2)nc2[nH]nc(N3CCOC[C@H]3C)c12 [compound 39, N-(trans-4-((4-Methoxy-3-((R)-3-methylmorpholino)-1H-pyrazolo[3,4-d]pyrimidin-6-yl)amino)cyclohexyl)-2-methylpropane-1-sulfonamide]
≥ 20 µM: all assays above
